# Tests used:
# [1] = Dissociation constant, pKa of the compound; type: physicochemical
# [2] = Lipophilicity, logD of compound at 7.4; conditions: octanol/water
# MDR1 and BCRP = experiment: (§1) Efflux ratio of apparent permeability in dog MDCK cells transfected with MDR1 and BCRP at 0.1 uM; type: ADME, cell-based, Canis lupus familiaris
# [3] = Unbound brain-to-plasma concentration ratio in Wistar Han rat at 2.3 microM/Kg, iv and measured after 4 hrs; type: ADME, organism-based; conditions: read-out: K(p,uu,brain)
# GTPase KRas = GTPase KRas (Homo sapiens, UniProt P01116, G12C)
# Sequence of GTPase KRas (P01116 whole entry G12C): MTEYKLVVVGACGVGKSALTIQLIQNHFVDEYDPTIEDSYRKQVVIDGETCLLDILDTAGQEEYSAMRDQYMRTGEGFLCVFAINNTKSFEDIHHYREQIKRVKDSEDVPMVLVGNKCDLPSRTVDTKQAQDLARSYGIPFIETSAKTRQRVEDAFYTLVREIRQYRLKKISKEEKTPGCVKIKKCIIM
# in vitro = conditions: human, liver microsomes, CLH
# Description: (§2) Microsomal stability in human liver microsomes assessed as intrinsic clearance
# [4] = […] stability in rat hepatocyte assessed as intrinsic clearance measured per million of cells; type: ADME, cell-based; conditions: hepatocytes
# NCI-H358 = experiment: Antiproliferative activity against human NCI-H358 cells harboring KRAS G12C mutant cultured as 3D spheroids assessed as reduction in cell proliferation incubated for 3 days by CellTiter-Glo 3D reagent based assay; type: functional; conditions: NCI-H358, 72 h
# [5] = as §1; type: ADME, cell-based, Canis lupus familiaris; conditions: mdck, 0.1 µM
# [6] = human, microsomes
# Description: as §2
Structure (SMILES),pKa [1],"logD ([2]; pH 7.4, logD)",efflux ratio at 0.1 µM (MDR1 and BCRP),Kp uu at 4 h [3],IC50 (GTPase KRas) [nM],microsomal CLint (in vitro) [µL/min/mg],CLH [4] [µL/min],IC50 (NCI-H358) [nM],logD ([2]; pH 7.4),Ratio [5],CLH [6] [µL/min/mg]
C=CC(=O)N1CCN2Cc3ccc(-c4c(C)ccc5[nH]ncc45)c(Cl)c3OC[C@@H]2C1,–,3.5,0.9,0.41,1310,> 294,130,–,–,–,–
C=CC(=O)N1CCN2c3ncnc4cc(-c5c(C)ccc6[nH]ncc56)c(Cl)c(c34)OC[C@@H]2C1,–,–,–,–,–,58,109,–,–,–,–
C#Cc1cc(CN2CCN(C(=O)C=C)CC2)cc(F)c1-c1c(O)cccc1Cl,–,3.2,–,–,13600,18,38,–,–,–,–
C=C(F)C(=O)N1CCN(c2nc(OC[C@@H]3CCCN3C)nc3c2CCN(c2cccc4cccc(Cl)c24)C3)C[C@@H]1CC#N [ADAGRASIB],–,3.6,–,0.01,–,80,12,6,–,–,–
C=CC(=O)N1CCN2C(=O)c3ccc(-c4c(C)ccc5[nH]ncc45)c(Cl)c3OC[C@@H]2C1,–,2.8,1.4,–,4300,54,93,–,–,–,–
C=CC(=O)N1CCN2Cc3ccc(-c4c(O)cccc4F)c(Cl)c3OC[C@H]2C1,–,–,0.8,–,231,33,52,–,–,–,–
C=CC(=O)N1CCN(c2nc(=O)n(-c3c(C)ccnc3C(C)C)c3nc(-c4c(O)cccc4F)c(F)cc23)[C@@H](C)C1 [SOTORASIB],–,2.3,–,0.01,–,36,18,1,–,–,–
C=CC(=O)N1CCN2Cc3ccc(-c4c(C)ccc5[nH]ncc45)c(Cl)c3OCCC2C1 (stereo in doubt; 19),–,3.2,1.4,–,8290,294,234,–,–,–,–
C=CC(=O)N1CCN2Cc3ccc(-c4c(C)ccc5[nH]ncc45)c(Cl)c3OC[C@H]2C1,–,3.2,0.4,0.24,332,86,156,–,–,–,–
C=CC(=O)N1CCN(Cc2cc(F)c(-c3c(O)cccc3Cl)c(F)c2)CC1,–,3.3,–,–,7820,< 3,122,–,–,–,–
C=CC(=O)N1CCN2Cc3cc(F)c(-c4c(O)cccc4F)c(F)c3OC[C@H]2C1,–,2.5,–,–,279,5,18,–,–,–,–
C=CC(=O)N1CCN2Cc3ccc(-c4c(C)ccc5[nH]ncc45)c(Cl)c3OCCC2C1 (stereo in doubt; 20),–,–,–,–,4010,–,97,–,3.3,2.1,> 300

# Now from value to compound:
pKa [1],"logD ([2]; pH 7.4, logD)",efflux ratio at 0.1 µM (MDR1 and BCRP),Kp uu at 4 h [3],IC50 (GTPase KRas) [nM],microsomal CLint (in vitro) [µL/min/mg],CLH [4] [µL/min],IC50 (NCI-H358) [nM],logD ([2]; pH 7.4),Ratio [5],CLH [6] [µL/min/mg],Structure (SMILES)
3.9,2.7,1,0.05,19,16,23,–,–,–,–,C#Cc1cc2c(c(F)c1-c1c(O)cccc1Cl)OC[C@H]1CN(C(=O)C=C)CCN1C2
3.9,2.8,0.7,0.11,43,< 7,20,–,–,–,–,C=CC(=O)N1CCN2Cc3cc(F)c(-c4c(O)cccc4Cl)c(F)c3OC[C@H]2C1.O
–,2.4,1.2,0.15,90,19,29,–,–,–,–,C=CC(=O)N1CCN2Cc3cc(F)c(-c4c(C)cccc4O)c(F)c3OC[C@H]2C1
–,2,–,–,99,41,48,–,–,–,–,C=CC(=O)N1CCN2C(=O)c3cc(OCCOC)c(-c4c(O)cccc4Cl)c(F)c3OC[C@H]2C1
–,3.2,0.6,–,29,17,44,–,–,–,–,C=CC(=O)N1CCN2Cc3cc(Cl)c(-c4c(O)cccc4Cl)c(F)c3OC[C@H]2C1
–,2.2,1.9,–,74,15,59,–,–,–,–,C=CC(=O)N1CCN2Cc3cc(OC)c(-c4c(O)cccc4Cl)c(F)c3OC[C@H]2C1
–,3.2,37.2,0.06,3,26,41,–,–,–,–,C=CC(=O)N1C[C@H]2CCOc3c(Cl)c(-c4c(O)cccc4F)c(F)c4ncnc(c34)N2C[C@H]1C
–,2.6,–,–,81,25,174,–,–,–,–,C=CC(=O)N1CCN2Cc3cc(OC4CC4)c(-c4c(O)cccc4Cl)c(F)c3OC[C@H]2C1
–,2.8,1.2,–,149,8,42,–,–,–,–,C=CC(=O)N1CCN2Cc3cc(F)c(-c4c(O)cccc4F)c(Cl)c3OC[C@H]2C1
–,3.2,–,–,22,97,101,–,–,–,–,C=CC(=O)N1CCN2Cc3cc(C4CC4)c(-c4c(O)cccc4Cl)c(F)c3OC[C@H]2C1
–,1,12.4,–,110,10,8,–,–,–,–,C=CC(=O)N1CCN2Cc3cc(OCCN(C)C)c(-c4c(O)cccc4Cl)c(F)c3OC[C@H]2C1
–,3,–,–,130,63,99,–,–,–,–,C=CC(=O)N1CCN2Cc3cc(C(F)F)c(-c4c(O)cccc4Cl)c(F)c3OC[C@H]2C1
–,2.7,–,–,160,18,143,–,–,–,–,C=CC(=O)N1CCN2Cc3cc(OC(F)F)c(-c4c(O)cccc4Cl)c(F)c3OC[C@H]2C1
–,2.5,6.5,–,16,13,54,–,–,–,–,C=CC(=O)N1CCN2Cc3cc(C#N)c(-c4c(O)cccc4Cl)c(F)c3OC[C@H]2C1
